Source: US20140024700A1, “BLOOD-BORNE MIRNAS AS SURROGATE MARKERS OF DRUG EFFICACY FOR CARDIAC CONDITIONS” (miRagen Therapeutics, Inc., priority 2010, published 2014)

Tested on: miR-208a
Assay: Real-time PCR of miR-208a in cardiac tissue, 4% NaCl diet (Example 1)
Format: in vivo, rat
Conditions: 4% NaCl HS diet, 2 weeks after last injection, 5 or 25 mg/kg antimiR, control 25 mg/kg
Experimental: This regulation of miR-499 and miR-208b was confirmed by Northern blot analysis (FIG. 2B).
For in vivo real-time PCR analysis, RNA was extracted from cardiac tissue using Trizol (Invitrogen) after which two μg RNA from each tissue sample was used to generate cDNA using Super Script II reverse transcriptase per manufacturer's specifications (Invitrogen). To detect the level of miR-208 RT-PCR was performed using the Taqman MicroRNA assay (Applied Biosystems, ABI) according the manufacturer's recommendations, using 10-100 ng of total RNA. The expression of a subset of genes was analyzed by quantitative real time PCR using Taqman probes purchased from ABI.

M-10101: antimiR targeting bases 2 to 17 of mature miR-208a, LNA and DNA linked by phosphorothioate bonds; 5′-CTTTTTGCTCGTCTTA-3′ (SEQ ID NO: 12) (all phosphorothioate, sugars by position and methylation of C not given here; LNA/DNA mixmer; listed as Homo sapiens)
miR-208a level in left and right ventricle (listed as Anti-miR-208a): dose-dependent inhibition
miR-208a level in left and right ventricle (listed as anti-miR-208a): dose-dependent reduction of miR-208a
